Measured values taken from US5925731A, “Endothelin antagonist peptides” (Takeda Chemical Industries, Ltd., priority 1995, dated 1999).
*1 amine or outer side, *2 acyl side, *3 side chain or, on linkers, in order; H or OH if unused. Where a SMILES comes first, the peptide text is derived from it. [ ]: non-standard residue; d: D form. The star is where a group is joined. Piperazinyl(4-(2-MeOPh)) = COc1ccccc1N1CCN(*)CC1; Piperazinyl(4-Ph) = c1ccc(N2CCN(*)CC2)cc1; X3 = COc1ccc(C)cc1N1CCN(*)CC1; X2 = COc1cccc(N2CCN(*)CC2)c1; dNle = CCCC[C@@H](N)C(=O)O; X4 = Fc1ccccc1N1CCN(*)CC1; Nle = CCCC[C@H](N)C(=O)O; CO = O=C([*:1])[*:2]; X1 = C1CCCN(*)CC1; Moc = COC(=O)*; For = O=C*

Legend:
[1] = molecular target: T1, human endothelin receptor ETA (Homo sapiens, UniProt P25101); experiment: Radioiodinated endothelin-1 binding to membrane fraction of CHO cells expressing human endothelin receptor ETA; conditions: radioactive-iodine-labeled endothelin-1, 25° C., one hour
T1 construct: expressed in transfected cells; host or cells: CHO cells (membrane fraction)
T1 sequence (P25101 21-427): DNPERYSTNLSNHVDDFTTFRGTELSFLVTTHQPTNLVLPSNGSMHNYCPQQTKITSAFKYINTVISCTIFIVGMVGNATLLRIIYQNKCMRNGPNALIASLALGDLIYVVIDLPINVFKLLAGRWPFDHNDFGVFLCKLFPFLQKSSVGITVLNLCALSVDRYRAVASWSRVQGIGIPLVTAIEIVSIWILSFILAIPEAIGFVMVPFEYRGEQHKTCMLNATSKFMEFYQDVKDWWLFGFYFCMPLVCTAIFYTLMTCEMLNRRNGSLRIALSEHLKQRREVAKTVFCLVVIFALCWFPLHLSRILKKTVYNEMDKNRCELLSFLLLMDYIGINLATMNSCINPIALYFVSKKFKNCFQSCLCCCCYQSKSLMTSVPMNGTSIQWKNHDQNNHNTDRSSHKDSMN
Description: (§1) The membrane fraction of CHO cells on which human endothelin receptor (ETA or ETB) was expressed was diluted to 0.15 mg/ml with an assaying buffer and dispensed to assaying tubes at 100 μl per tube. To this membrane fraction suspension were added 2 μl of a solution of endothelin-1 labeled with radioactive iodine (5 nM) and 3 μl of a 50% dimethyl sulfoxide of the test compound, followed by incubation at 25° C. for one hour. The membrane fraction suspension was diluted with 900 μl of an ice-cooled assaying buffer and centrifuged at 12,000×G for 10 minutes to separate supernatant and precipitate. The precipitate contained cell membranes and endothelin receptors embedded therein. The receptor-bound endothelin, labeled with radioactive iodine, was also recovered in the precipitate. The radioactive iodine in this precipitate was counted, using a gamma ray counter, to determine the amount of radioactive-iodine-labeled endothelin-1 bound to the endothelin receptors. The results of the quantitative determination were shown in the respective IC50 (nm) values in the following Table 2.

[2] = molecular target: T2, human endothelin receptor ETB (Homo sapiens, UniProt P24530); experiment: Radioiodinated endothelin-1 binding to membrane fraction of CHO cells expressing human endothelin receptor ETB; conditions: radioactive-iodine-labeled endothelin-1, 25° C., one hour
T2 construct: expressed in transfected cells; host or cells: CHO cells (membrane fraction)
T2 sequence (P24530 27-442): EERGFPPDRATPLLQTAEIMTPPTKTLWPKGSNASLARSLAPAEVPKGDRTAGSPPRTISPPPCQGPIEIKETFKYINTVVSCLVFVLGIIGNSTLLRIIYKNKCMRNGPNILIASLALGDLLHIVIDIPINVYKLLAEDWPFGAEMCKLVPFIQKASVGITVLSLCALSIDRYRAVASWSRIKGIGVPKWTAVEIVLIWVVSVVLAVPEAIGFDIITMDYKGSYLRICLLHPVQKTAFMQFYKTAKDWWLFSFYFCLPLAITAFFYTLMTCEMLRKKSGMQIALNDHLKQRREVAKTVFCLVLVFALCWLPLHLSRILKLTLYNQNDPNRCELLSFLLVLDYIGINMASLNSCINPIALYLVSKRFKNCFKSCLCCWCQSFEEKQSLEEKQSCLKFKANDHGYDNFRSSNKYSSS
Description: as §1

Structure (SMILES) | IC50 [1] | IC50 [2]
CCCC[C@@H](NC(=O)[C@@H](Cc1cn(C=O)c2ccccc12)NC(=O)[C@H](CC(C)C)NC(=O)N1CCCCCC1)C(=O)N[C@H](CC(=O)N1CCN(c2ccccc2)CC1)C(=O)O [W. Ex. 1, Hexamethyleniminocarbonyl-Leu-D-Trp(CHO)-D-Nle-D-Asp(Php)] ({X1-CO}-L[dW](For)[dNle][dD](Piperazinyl(4-Ph))-OH) | 1.8 nM | 130 nM
CCCC[C@@H](NC(=O)[C@@H](Cc1cn(C(=O)OC)c2ccccc12)NC(=O)[C@H](CC(C)C)NC(=O)N1CCCCCC1)C(=O)N[C@H](CC(=O)N1CCN(c2ccccc2)CC1)C(=O)O [W. Ex. 2, Hexamethyleniminocarbonyl-Leu-D-Trp(COOMe)-D-Nle-D-Asp(Php)] ({X1-CO}-L[dW](Moc)[dNle][dD](Piperazinyl(4-Ph))-OH) | 11 nM | 18 nM
CCCC[C@@H](NC(=O)[C@@H](Cc1cn(C(=O)OC)c2ccccc12)NC(=O)[C@H](CC(C)C)NC(=O)N1CCCCCC1)C(=O)N[C@@H](CC(=O)N1CCN(c2ccccc2)CC1)C(=O)O [W. Ex. 3, Hexamethyleniminocarbonyl-Leu-D-Trp(COOMe)-D-Nle-Asp (Php)] ({X1-CO}-L[dW](Moc)[dNle]D(Piperazinyl(4-Ph))-OH) | 45 nM | 34 nM
CCCC[C@@H](NC(=O)[C@@H](Cc1cn(C(=O)OC)c2ccccc12)NC(=O)[C@H](CC(C)C)NC(=O)N1CCCCCC1)C(=O)N[C@H](CCC(=O)O)C(=O)N1CCN(c2ccccc2)CC1 [W. Ex. 4, Hexamethyleniminocarbonyl-Leu-D-Trp(COOMe)-D-Nle-D-Glu-Php] ({X1-CO}-L[dW](Moc)[dNle][dE]-{Piperazinyl(4-Ph)}) | 23 nM | 23 nM
CCCC[C@@H](NC(=O)[C@@H](Cc1cn(C(=O)OC)c2ccccc12)NC(=O)[C@H](CC(C)C)NC(=O)N1CCCCCC1)C(=O)N[C@H](CC(=O)N1CCN(c2ccccc2OC)CC1)C(=O)O [W. Ex. 5, Hexamethyleniminocarbonyl-Leu-D-Trp(COOMe)-D-Nle-D-Asp (2MeOPhp)] ({X1-CO}-L[dW](Moc)[dNle][dD](Piperazinyl(4-(2-MeOPh)))-OH) | 7.1 nM | 7.9 nM
CCCC[C@@H](NC(=O)[C@@H](Cc1cn(C(=O)OC)c2ccccc12)NC(=O)[C@H](CC(C)C)NC(=O)N1CCCCCC1)C(=O)N[C@H](CC(=O)N1CCN(c2cccc(OC)c2)CC1)C(=O)O [W. Ex. 6, Hexamethyleniminocarbonyl-Leu-D-Trp(COOMe)-D-Nle-D-Asp (3MeOPhp)] ({X1-CO}-L[dW](Moc)[dNle][dD](X2)-OH) | 28 nM | 29 nM
CCCC[C@@H](NC(=O)[C@@H](Cc1cn(C(=O)OC)c2ccccc12)NC(=O)[C@H](CC(C)C)NC(=O)N1CCCCCC1)C(=O)N[C@H](CC(=O)N1CCN(c2cc(C)ccc2OC)CC1)C(=O)O [W. Ex. 7, Hexamethyleniminocarbonyl-Leu-D-Trp(COOMe)-D-Nle-D-Asp(2MeO-5MePhp)] ({X1-CO}-L[dW](Moc)[dNle][dD](X3)-OH) | 49 nM | 110 nM
CCCC[C@@H](NC(=O)[C@@H](Cc1cn(C(=O)OC)c2ccccc12)NC(=O)[C@H](CC(C)C)NC(=O)N1CCCCCC1)C(=O)N[C@H](CC(=O)N1CCN(c2ccccc2F)CC1)C(=O)O [W. Ex. 8, Hexamethyleniminocarbonyl-Leu-D-Trp(COOMe)-D-Nle-D-Asp (2FPhp)] ({X1-CO}-L[dW](Moc)[dNle][dD](X4)-OH) | 18 nM | 29 nM
CCCC[C@@H](NC(=O)[C@@H](Cc1cn(C(=O)OC)c2ccccc12)NC(=O)[C@@H](NC(=O)N1CCCCCC1)[C@@H](C)CC)C(=O)N[C@H](CC(=O)N1CCN(c2ccccc2)CC1)C(=O)O [W. Ex. 9, Hexamethyleniminocarbonyl-Ile-D-Trp(COOMe)-D-Nle-D-Asp(Php)] ({X1-CO}-I[dW](Moc)[dNle][dD](Piperazinyl(4-Ph))-OH) | 21 nM | 15 nM
CCCC[C@H](NC(=O)N1CCCCCC1)C(=O)N[C@H](Cc1cn(C(=O)OC)c2ccccc12)C(=O)N[C@H](CCCC)C(=O)N[C@H](CC(=O)N1CCN(c2ccccc2)CC1)C(=O)O [W. Ex. 10, Hexamethyleniminocarbonyl-Nle-D-Trp(COOMe)-D-Nle-D-Asp(Php)] ({X1-CO}-[Nle][dW](Moc)[dNle][dD](Piperazinyl(4-Ph))-OH) | 34 nM | 75 nM
